± gives the expanded uncertainty stated by the source. Values belong to the compound of their own block, whether it stands above or below them.
Legend:
[1] = 298.15 K, 101 kPa, Liquid; for electrical conductivity: Alternating current cell with electrodes; for viscosity: Falling or rolling sphere viscometry; for self diffusion coefficient: PFG NMR Spectroscopy
[2] = xn = mol fraction of the nth substance listed; settings: 298.15 K, 101 kPa, Liquid; for electrical conductivity: Alternating current cell with electrodes; for viscosity: Falling or rolling sphere viscometry

Structure (SMILES): CCCCn1cc[n+](C)c1.COS(=O)(=O)[O-] [1-butyl-3-methylimidazolium methyl sulfate]
electrical conductivity [1]: 0.126 ± 0.002 S/m | viscosity [1]: 223 ± 12 mPa·s | self diffusion coefficient [1]: 1.3e-11 m2/s

Structure (SMILES): CCCCn1cc[n+](C)c1.COS(=O)(=O)[O-] [1-butyl-3-methylimidazolium methyl sulfate] + O
electrical conductivity ([2]; x2 = 0): 0.126 ± 0.002 S/m | electrical conductivity ([2]; x2 = 0.1999): 0.247 ± 0.003 S/m | electrical conductivity ([2]; x2 = 0.4037): 0.4 ± 0.005 S/m | electrical conductivity ([2]; x2 = 0.617): 0.799 ± 0.01 S/m | electrical conductivity ([2]; x2 = 0.7937): 1.77 ± 0.021 S/m | electrical conductivity ([2]; x2 = 0.9437): 3.42 ± 0.041 S/m | electrical conductivity ([2]; x2 = 0.992): 1.92 ± 0.044 S/m | electrical conductivity ([2]; x2 = 0.9977): 0.849 ± 0.039 S/m | viscosity ([2]; x2 = 0): 223 ± 12 mPa·s | viscosity ([2]; x2 = 0.1999): 112 ± 4 mPa·s | viscosity ([2]; x2 = 0.4037): 63.1 ± 2.1 mPa·s | viscosity ([2]; x2 = 0.617): 27.6 ± 1 mPa·s | viscosity ([2]; x2 = 0.7937): 11.5 ± 0.4 mPa·s

Structure (SMILES): CCn1cc[n+](C)c1.COS(=O)(=O)[O-] [1-ethyl-3-methylimidazolium methylsulfate]
electrical conductivity [1]: 0.547 ± 0.007 S/m | viscosity [1]: 81.4 ± 2.7 mPa·s | self diffusion coefficient [1]: 4.6e-11 m2/s

The next lines start with the values.

electrical conductivity ([2]; x2 = 0): 0.547 ± 0.007 S/m | electrical conductivity ([2]; x2 = 0.2542): 0.909 ± 0.011 S/m | electrical conductivity ([2]; x2 = 0.4994): 1.6 ± 0.019 S/m | electrical conductivity ([2]; x2 = 0.7519): 3.16 ± 0.038 S/m | electrical conductivity ([2]; x2 = 0.8053): 3.99 ± 0.048 S/m | electrical conductivity ([2]; x2 = 0.9249): 6.23 ± 0.075 S/m | electrical conductivity ([2]; x2 = 0.9737): 4.58 ± 0.055 S/m | viscosity ([2]; x2 = 0): 81.4 ± 2.7 mPa·s | viscosity ([2]; x2 = 0.2542): 39.7 ± 1.3 mPa·s | viscosity ([2]; x2 = 0.4994): 20.2 ± 0.7 mPa·s | viscosity ([2]; x2 = 0.7519): 8.59 ± 0.31 mPa·s | viscosity ([2]; x2 = 0.8053): 6.62 ± 0.25 mPa·s | viscosity ([2]; x2 = 0.9249): 2.59 ± 0.1 mPa·s | viscosity ([2]; x2 = 0.9737): 1.43 ± 0.06 mPa·s
Structure (SMILES): CCn1cc[n+](C)c1.COS(=O)(=O)[O-] [1-ethyl-3-methylimidazolium methylsulfate] + O

viscosity [1]: 0.89 ± 0.04 mPa·s | self diffusion coefficient [1]: 2.3e-09 m2/s
Structure (SMILES): O [water]

viscosity ([2]; x1 = 1): 0.89 ± 0.04 mPa·s
Structure (SMILES): O [water] + CCCCn1cc[n+](C)c1.COS(=O)(=O)[O-]

viscosity ([2]; x1 = 1): 0.89 ± 0.04 mPa·s
Structure (SMILES): O [water] + CCn1cc[n+](C)c1.COS(=O)(=O)[O-]

From the NIST ThermoML archive (doi:10.1016/j.jct.2014.01.031)
